The source of these data is ChEMBL document CHEMBL1127139, “Synthesis and -lactamase inhibitory activity of 6-hydroxyethyl thiaclavulanic acid” (Bioorg Med Chem Lett, 1993).

Test [1] deals with Beta-lactamase (Enterobacter cloacae) (UniProt P05364). The experiment in a line: Tested for inhibitory activity against beta-lactamase (groupI) Enterobacter cloacae P99 in presence of ampicillin + 80 ug/mL of compound.
Test [2] addresses Beta-lactamase TEM (Escherichia coli) (UniProt P62593). In words: Tested for inhibitory activity against beta-lactamase (groupIII) Escherichia coli RPI in presence of ampicillin + 20 ug/mL of compound.
In test [3] the target is Beta-lactamase OXA-1 (Escherichia coli) (UniProt P13661). In words: Tested for inhibitory activity against beta-lactamase (groupV) Escherichia coli R57b in presence of ampicillin + 20 ug/mL of compound.
In test [4] the target is Beta-lactamase (Staphylococcus aureus) (UniProt P00807). The experiment in a line: Tested for inhibitory activity against beta-lactamase (groupII) staphylococcus aureus 39/2 strain in presence of ampicillin + 20 ug/mL of compound.
Test [5] addresses Beta-lactamase OXA-1 (Escherichia coli) (UniProt P13661). In words: Tested for inhibitory activity against beta-lactamase (groupV) Escherichia coli RGN in presence of ampicillin + 20 ug/mL of compound.
The target in test [6] is Beta-lactamase TEM (Escherichia coli) (UniProt P62593). The experiment in a line: Tested for inhibitory activity against beta-lactamase (groupIII) Escherichia coli RPI in presence of ampicillin + 80 ug/mL of compound.
Test [7] concerns the target Beta-lactamase OXA-1 (Escherichia coli) (UniProt P13661). The experiment in a line: Tested for inhibitory activity against beta-lactamase (groupV) Escherichia coli R57b in presence of ampicillin + 80 ug/mL of compound.
Test [8] has as its target T1, Beta-lactamase OXA-9 (Klebsiella aerogenes) (UniProt P0A3M4).
T1 sequence (whole entry): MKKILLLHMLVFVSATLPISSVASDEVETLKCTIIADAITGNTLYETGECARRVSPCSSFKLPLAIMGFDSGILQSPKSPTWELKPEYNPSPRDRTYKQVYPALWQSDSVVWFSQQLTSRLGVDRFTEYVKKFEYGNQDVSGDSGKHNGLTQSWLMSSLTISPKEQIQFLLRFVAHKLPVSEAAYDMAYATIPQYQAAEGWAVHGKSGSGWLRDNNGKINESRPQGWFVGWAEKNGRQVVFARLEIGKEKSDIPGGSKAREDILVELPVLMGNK
In words: Tested for inhibitory activity against beta-lactamase (groupIV) Klebsiella aerogenes 1082E in presence of ampicillin + 20 ug/mL of compound.

Test [9] addresses T1, Beta-lactamase OXA-9 (Klebsiella aerogenes). In words: Tested for inhibitory activity against beta-lactamase (groupIV) Klebsiella aerogenes 1082E in presence of ampicillin + 80 ug/mL of compound.
Test [10] addresses Beta-lactamase OXA-1 (Escherichia coli) (UniProt P13661). In words: Tested for inhibitory activity against beta-lactamase (groupV) Escherichia coli RGN in presence of ampicillin + 80 ug/mL of compound.
The target in test [11] is Beta-lactamase (Staphylococcus aureus) (UniProt P00807). The experiment in a line: Tested for inhibitory activity against beta-lactamase (groupII) staphylococcus aureus 39/2 strain in presence of ampicillin + 80 ug/mL of compound.
For test [12] the target is unchanged. The experiment in a line: Tested for inhibitory activity against beta-lactamase (groupII) staphylococcus aureus 39/2 strain.
Test [13] deals with Beta-lactamase OXA-1 (Escherichia coli) (UniProt P13661). In words: Tested for inhibitory activity against beta-lactamase (groupV) Escherichia coli R57b.
For test [14], the target named is Beta-lactamase TEM (Escherichia coli) (UniProt P62593). The experiment in a line: Tested for inhibitory activity against beta-lactamase (groupIII) Escherichia coli RPI.
For test [15], the target named is Beta-lactamase (Enterobacter cloacae) (UniProt P05364). The experiment in a line: Tested for inhibitory activity against beta-lactamase (groupI) Enterobacter cloacae P99.
Test [16] deals with Beta-lactamase OXA-1 (Escherichia coli) (UniProt P13661). In words: Tested for inhibitory activity against beta-lactamase (groupV) Escherichia coli RGN.
Test [17] addresses T1, Beta-lactamase OXA-9 (Klebsiella aerogenes). In words: Tested for inhibitory activity against beta-lactamase (groupIV) Klebsiella aerogenes 1082E.

Converted amounts (≈) assume the structure as drawn.

Chain of Beta-lactamase (Enterobacter cloacae) (P05364 21-381 limits assumed): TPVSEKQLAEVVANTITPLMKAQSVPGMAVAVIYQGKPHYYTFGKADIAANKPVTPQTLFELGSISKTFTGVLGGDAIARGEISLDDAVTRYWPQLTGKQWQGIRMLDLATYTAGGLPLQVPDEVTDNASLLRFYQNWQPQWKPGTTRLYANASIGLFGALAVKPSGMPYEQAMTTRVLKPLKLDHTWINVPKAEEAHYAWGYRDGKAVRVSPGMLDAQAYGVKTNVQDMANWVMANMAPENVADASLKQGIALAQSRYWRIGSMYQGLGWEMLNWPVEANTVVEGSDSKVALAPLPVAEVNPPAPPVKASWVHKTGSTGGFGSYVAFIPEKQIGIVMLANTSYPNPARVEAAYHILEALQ
Chain of Beta-lactamase OXA-1 (Escherichia coli) (P13661 whole entry): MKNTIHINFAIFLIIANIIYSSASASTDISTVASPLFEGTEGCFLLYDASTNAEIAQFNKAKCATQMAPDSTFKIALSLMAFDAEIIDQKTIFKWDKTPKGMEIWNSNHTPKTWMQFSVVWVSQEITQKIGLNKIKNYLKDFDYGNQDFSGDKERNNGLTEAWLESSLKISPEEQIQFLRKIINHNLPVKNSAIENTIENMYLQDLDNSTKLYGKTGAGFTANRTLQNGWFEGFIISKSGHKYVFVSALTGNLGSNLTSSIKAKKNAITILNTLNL
Chain of Beta-lactamase (Staphylococcus aureus) (P00807 whole entry): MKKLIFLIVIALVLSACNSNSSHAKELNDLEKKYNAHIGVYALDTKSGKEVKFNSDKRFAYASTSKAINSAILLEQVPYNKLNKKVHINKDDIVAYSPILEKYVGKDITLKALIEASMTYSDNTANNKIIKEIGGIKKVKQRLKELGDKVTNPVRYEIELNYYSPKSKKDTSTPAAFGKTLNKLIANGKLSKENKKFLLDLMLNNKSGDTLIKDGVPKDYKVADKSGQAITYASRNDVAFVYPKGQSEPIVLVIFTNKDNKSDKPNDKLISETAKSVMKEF
Chain of Beta-lactamase TEM (Escherichia coli) (P62593 whole entry): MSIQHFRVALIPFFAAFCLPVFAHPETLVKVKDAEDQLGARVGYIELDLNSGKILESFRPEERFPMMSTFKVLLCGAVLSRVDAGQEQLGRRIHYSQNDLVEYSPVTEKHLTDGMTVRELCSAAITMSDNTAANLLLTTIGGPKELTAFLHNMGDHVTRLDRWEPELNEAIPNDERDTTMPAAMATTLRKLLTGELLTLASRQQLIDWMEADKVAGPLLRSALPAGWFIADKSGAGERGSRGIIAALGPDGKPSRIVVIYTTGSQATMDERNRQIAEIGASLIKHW

As to `C[C@H](O)[C@H]1C(=O)N2[C@@H]1S/C(=C\CO)[C@@H]2C(=O)O`, the MIC is more than 100 µg/mL in [1]; more than 100 µg/mL in test [2]; 6.25 µg/mL in [3]; less than 0.39 µg/mL in test [4]; 6.25 µg/mL in [5]; more than 100 µg/mL in test [6]. Moreover, the MIC in test [7] was 1.56 µg/mL; in [8] it was more than 100 µg/mL; in test [9] it was more than 100 µg/mL; in test [10], 3.12 µg/mL; in test [11], less than 0.39 µg/mL.
On to `CC1(C)S[C@@H]2[C@H](NC(=O)[C@H](N)c3ccccc3)C(=O)N2[C@H]1C(=O)O`, for which the MIC is 1.56 µg/mL (≈ 4.46 µM) in [12]; 100 µg/mL (≈ 286 µM) in test [13]; more than 100 µg/mL in test [14]; more than 100 µg/mL in test [15]; 12.5 µg/mL (≈ 35.8 µM) in test [16]; more than 100 µg/mL in test [17].
